Source: US20260083751A1, “ALLOSTERIC MODULATORS OF ANDROGEN RECEPTOR COACTIVATOR RECRUITMENT FOR CRPC THERAPY” (University of Pittsburgh – Of the Commonwealth System of …, priority 2022, published 2026)
Entries after “also recorded” stand apart in the source; their conditions may differ.

Biological target: T1, AR (Homo sapiens, UniProt P10275, T878A)
T1 construct: the amount of soluble AR protein in heat shocked C4-2 cell lysates; endogenous in cells; host or cells: C4-2 castration resistant prostate cancer cells
T1 sequence (P10275 1-920 T878A): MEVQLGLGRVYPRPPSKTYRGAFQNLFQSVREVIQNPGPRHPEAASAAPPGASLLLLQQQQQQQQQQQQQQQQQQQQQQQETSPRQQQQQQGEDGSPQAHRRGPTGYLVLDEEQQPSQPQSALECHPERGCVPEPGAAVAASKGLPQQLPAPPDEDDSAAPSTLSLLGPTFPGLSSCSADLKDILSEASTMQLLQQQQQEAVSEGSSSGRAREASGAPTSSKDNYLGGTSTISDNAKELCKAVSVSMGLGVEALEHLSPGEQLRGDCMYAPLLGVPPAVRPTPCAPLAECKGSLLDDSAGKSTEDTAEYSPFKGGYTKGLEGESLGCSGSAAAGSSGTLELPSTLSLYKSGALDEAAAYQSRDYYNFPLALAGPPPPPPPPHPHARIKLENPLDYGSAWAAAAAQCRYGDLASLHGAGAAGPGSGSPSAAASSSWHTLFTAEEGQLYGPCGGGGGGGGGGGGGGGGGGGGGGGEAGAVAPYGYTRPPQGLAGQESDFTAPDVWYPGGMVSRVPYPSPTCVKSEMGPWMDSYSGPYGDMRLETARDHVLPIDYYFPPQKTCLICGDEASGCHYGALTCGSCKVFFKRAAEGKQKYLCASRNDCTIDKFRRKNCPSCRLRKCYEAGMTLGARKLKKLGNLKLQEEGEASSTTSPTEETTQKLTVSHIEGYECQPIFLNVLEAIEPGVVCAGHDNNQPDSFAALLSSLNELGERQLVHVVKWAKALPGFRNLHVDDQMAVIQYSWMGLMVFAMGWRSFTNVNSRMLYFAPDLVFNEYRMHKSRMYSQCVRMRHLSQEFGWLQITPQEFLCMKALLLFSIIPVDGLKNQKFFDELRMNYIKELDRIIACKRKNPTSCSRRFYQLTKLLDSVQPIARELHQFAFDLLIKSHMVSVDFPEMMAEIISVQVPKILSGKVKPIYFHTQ
Assay: Western blotting cellular thermal shift assay for AR in C4-2 cells
Type: cell-based
Settings: for AR thermal stability at 46° C., compound alone (western blot): hits 20 μM for 1 h at 37° C.; for DHT-enhanced AR thermal stability at 46° C. (western blot): hits 20 μM, 10 nM DHT
Experimental: Western Blotting Cellular Thermal Shift Assays for TIF2 and AR Target Engagement in C4-2 Cells: C4-2 cells were harvested by trypsinization, washed 1× by centrifugation at 270×g for 5 min and resuspension in PBS, counted, centrifugated at 270× g for 5 min and resuspended at 7×10^6 cells per mL in Opti-MEM medium (Gibco, Gaithersburg, MD). 50 μL of C4-2 cell suspension (3.5×10^5 cells) were then transferred to PCR tubes that were placed in a T-100 thermocycler (BioRad, Hercules, CA) and a 2° C. interval temperature step gradient from 37° C. to 53° C. was applied. Cells were maintained at each step of the temperature gradient for 5 min and then tubes were withdrawn and placed on ice. 50 μL of cell lysis buffer, 500 mM NaCl, 1% NP-40, 1× protease inhibitor cocktail in PBS were added to the heat shocked cell suspensions in PCR tubes and placed on ice for an additional 30 min. Cell lysates were then centrifuged at 14,000 RPM (18,800×g) at 4° C. for 15 min and supernatants were transferred to new tubes and protein concentrations were determined in a bicinchoninic acid (BCA) assay. 45 μL of cell lysis supernatants were mixed with 15 μL of 5×SDS-PAGE sample buffer and placed in a heat block at 100° C. for 5 min. The protein constituents of heat shocked C4-2 cell lysis supernatants were separated by SDS-PAGE on 8% separating gels, transferred to nitrocellulose membranes that were blocked for 1 h at room temperature in 5% non-fat milk in TBST, and then probed overnight at 4° C. with a 1:1000 dilution of either rabbit anti-AR (Cell Signaling, Danvers, MA) or rabbit anti-TIF2 (Bethyl Laboratories, Waltham, MA) primary antibodies in TBST containing 5% non-fat milk. Membranes were then washed 3× in TBST buffer for 10 min, then incubated with a 1:10,000 dilution of the goat anti-rabbit IgG HRP conjugated secondary antibody (Invitrogen, Carlsbad, CA) in TBST containing 5% non-fat milk for 1 h at room temperature. Western blots were then washed 3× in TBST buffer and developed with Pierce ECL western blotting substrate. Images of ECL western blots were acquired on an iBright™ 1500 imaging system and quantified using the iBright™ image analysis software.

Row | AR thermal stability at 46° C., compound alone (western blot) | SMILES | DHT-enhanced AR thermal stability at 46° C. (western blot)
1 | did not stabilize AR | Cc1c(-c2ccccc2F)[nH]c2ccc(CNC(=O)CCc3cn[nH]c3)cc12 [Compound S3-11] | only partially blocked DHT-enhanced AR stabilization; also recorded: inhibition of DHT-enhanced AR thermal stability
2 | did not stabilize AR | Cc1ccccc1-c1cc(O)c2c(c1)CN(c1nc(C(N)=O)cs1)CCO2 [Compound S1-1] | only partially blocked DHT-enhanced AR stabilization; also recorded: inhibition of DHT-enhanced AR thermal stability
3 | did not stabilize AR | Cc1nsc(NC(=O)N2CCC(Sc3ccccc3C)CC2)n1 [Compound S2-6] | blocked DHT-enhanced AR thermal stabilization below DMSO baseline levels; also recorded: inhibition of DHT-enhanced AR thermal stability
